Results on two compounds are retold here after patent US4379091A, “Esters of arylpropionic acids endowed with an anti-inflammatory activity” (priority 1980, dated 1983).

Each structure is given as a SMILES string.

The subject of series [1] is carrageenin edema. Kind of series: carrageenin edema test in the rat (percent protection). Type of series: in vivo, rat (Wistar). The settings on record: for peak of activity (time) / time course of activity after the peak: carrageenin edema; for peak of activity (time) / time course of activity after the peak / Percent protection from the carrageenin edema: oral; for Percent protection from the carrageenin edema: detection after 4 hours, ibuprofen 100 mg/kg, MR-653 200 mg/kg (equimolar). The procedure:
1 percent carrageenin in saline was given, at the rate of 0.1 ml subcutaneously, into the plantar area of the left paw.
The compounds were administered 1, 3 and 6 hours respectively before the carrageenin injection; the related values were always read 4 hours after the carrageenin injection, duly assessing the percent swelling of the paw versus the value at the time 0 (carrageenin inocula). The results are expressed as percent protection considering the swelling in the control group as equal to 100.
For orientation: The carrageenan paw model is a standard test of acute inflammation.

The subject of series [2] is gastric mucosa. Kind of series: gastric injuring effects. The series is classed as in vivo, Wistar rats. The procedure:
The compounds were given intraperitoneally at the equimolar dose of 500 mg/kg. The animals were killed 5 hours after the treatment in order to assess the conditions of the gastric mucosa, and the possible presence of bleedings and ulcers.

Series [3] concerns carrageenin edema. Kind of series: carrageenin edema test in the rat (percent protection). The series is classed as in vivo, rat (Wistar). To be noted: oral, ibuprofen 100 mg/kg, MR-653 200 mg/kg (equimolar).
Series [4] deals with abdominal squirmings (phenylquinone). The series is described as follows: analgesic activity: abdominal squirmings induced by phenylquinone. The series is classed as in vivo. To be noted: oral, 100 mg/kg (equimolar doses), one hour before; 20 minutes observation. On the procedure: Abdominal squirmings were induced by an intraperitoneal injection in saline, given at the dose of 4 mg/kg/20 ml.

The nature of series [5]: plasma kinetics of ibuprofen and MR-653 in the male rat. An excerpt:
The investigational drugs were given by oral gavage, suspended in 0.5 percent gum arabic; an analogous suspension was used in the case of the intraperitoneal administration.

Series [6] relates to squirmings (acetylcholine). Kind of series: acetylcholine test: squirmings induced by acetylcholine. Type of series: in vivo, mouse. The settings on record: oral, one hour before acetylcholine, equimolar doses; 4 minutes observation. On the procedure: Squirmings were induced by an intraperitoneal injection of acetylcholine ([…]; 0.5 ml per mouse); both compounds were given orally one hour before the administration of acetylcholine at the dose of 10 mg/kg, in equimolar doses. […] The results reported below were obtained in comparison with the control group: […]

Series [7] in a line: solubility. Type of series: physicochemical.
Series [8] has as its system mouse. Kind of series: acute toxicity, oral LD 50 in the mouse. To be noted: versus the corresponding acid (ibuprofen for MR-653). Type of series: in vivo.
A short description of series [9]: acute toxicity, oral LD 50 in the mouse. The series is classed as in vivo. The settings on record: in vivo; mouse, oral.
The mark [10] stands for this setting: intraperitoneal, equimolar dose of 500 mg/kg, 5 hours after treatment.

For orientation: AUC means the area under the concentration-time curve, a measure of exposure. The low end stands for low exposure, the high end for high exposure. As to `CC(C)Cc1ccc(C(C)C(=O)O)cc1` (stereo not drawn) [Ibuprofen, 2-(4-isobutyl-phenyl) propionic acid], in [1] (equimolar doses), the “peak of activity (time)” value is “around the first hour”; the “time course of activity after the peak” value is “rapid and progressive decrease even starting from the second hour”. Also, the “Percent protection from the carrageenin edema” value (shortened to “Percent protection”) in [1] came out at 24%. Further, the “incidence of punctiform ulcer” value in series [2] (setting [10]) was found to be 14%. Also, the “condition of stomach / peritoneum” value in series [2] (rat, in vivo, ip, 500 mg/kg) is recorded as “almost normal mucosa with a fair quantity of a yellowish foamy secretion”. Further, the “Percent protection” value in [3] (detection after 1 hour) is reported as 60%. Further, in series [3] (detection after 2 hours), the “Percent protection” value is 44%. Also, in [3] (detection after 3 hours), the “Percent protection” value stood at 28%. The “Percent protection” value in series [3] (detection after 6 hours) turned out to be 20%. The “protection versus the control group (phenylquinone squirming)” value in [4] worked out at 20%. In addition, in [5] (plasma kinetics, oral), the “time of peak of the plasma levels of ibuprofen” value is “at the first hour”. In series [5] (rat, in vivo, ip, 58.8 mg/kg), the AUC at 7 h was approximately 325 µg·h/mL, the concentration at 0.5 h came out at 215000 ± 33400 ng/mL, the concentration at 1 h was found to be 105000 ± 12400 ng/mL and the concentration at 2 h is 18300 ± 11000 ng/mL. The same compound yielded a concentration at 7 h in series [5] (rat, in vivo, ip, 58.8 mg/kg) of 6200 ± 2400 ng/mL. Besides, in series [5] (rat, in vivo, po, 58.8 mg/kg), the AUC at 7 h was approximately 190 µg·h/mL, the concentration at 1 h was determined as 71700 ± 23600 ng/mL, the concentration at 2 h was 32200 ± 7700 ng/mL and the concentration at 5 h was 12100 ± 22000 ng/mL. The compound also returned a concentration at 7 h in series [5] (rat, in vivo, po, 58.8 mg/kg) of 9100 ± 1500 ng/mL. Moreover, in series [6], the “protection versus control group (acetylcholine squirming)” value is reported as 50%.
The term LD50 denotes the dose expected to kill half of the subjects tested. High values mean lower toxicity, low ones greater toxicity. Turning to `CC(C)Cc1ccc(C(C)C(=O)OCCOCCOCCOCCO)cc1` (stereo not drawn) [MR-653, Monoester of 2-(4-isobutyl-phenyl)propionic acid with tetraethylene glycol], the “peak of activity (time)” value in [1] (equimolar doses) is “around the first hour”. Further, the “time course of activity after the peak” value in series [1] (equimolar doses) is listed as “markedly slower”. Further, the “Percent protection” value in series [1] stood at 44%; in [3] (detection after 1 hour), 64%; in [3] (detection after 2 hours), 59%; in [3] (detection after 3 hours), 47%; in [3] (detection after 6 hours) it was 34%. In [1] (equimolar doses, versus ibuprofen), the “anti-inflammatory activity higher than that of ibuprofen until the 6th hour” value came to 48%. In addition, in series [2] (setting [10]), the “condition of stomach / peritoneum” value is recorded as “mildly hyperemic peritoneal exudate”. In addition, the “incidence of punctiform ulcer” value in series [2] (setting [10]) worked out at 16%. For the same compound, the “gastric injuring effects compared with the corresponding acid” value in series [2] (versus the corresponding acid (ibuprofen for MR-653)) was “practically unchanged values of toxicity and gastric injuring effects”. In addition, the “solubility in organic solvents” value in [7] (methanol, diethyl ether, acetone and chloroform) is “soluble on the other hand in methanol, diethyl ether, acetone and chloroform”. Also, the solubility in water entry in series [7] (water) was “practically insoluble in water”. In addition, the “toxicity compared with the corresponding acid” value in series [8] is “practically unchanged values of toxicity and gastric injuring effects”. This compound yielded an LD50 in [9] of more than 2000 mg/kg. The “protection versus the control group (phenylquinone squirming)” value in series [4] worked out at 20%. Moreover, the “protection versus control group (acetylcholine squirming)” value in series [6] was 48%.
